Laboratory results reported in publication PMC8621570, “Mechanistic Studies of Antibiotic Adjuvants Reducing Kidney’s Bacterial Loads upon Systemic Monotherapy” (Pharmaceutics, 2021).

Legend:
[1] = Peptide self-assembly (critical aggregation concentration) by static light scattering; assay type: physicochemical; conditions: light scattering in PBS
Experimental: Peptide self-assembly was determined by static light scattering measurements as described. Hemolysis was determined by measuring hemoglobin leakage from washed human RBCs, as described. Minimal inhibitory concentration (MIC) was determined using the microdilution assay, as described. Bactericidal kinetics were determined by mixing bacteria with rifampin, OAC, or their combinations, as described. Data were obtained from three independent assays performed in duplicate.

E. coli 25922 [2] = assay: Dissipation of the transmembrane potential, DiSC3(5); assay type: cell-based, Escherichia coli; conditions: 10 μM, compared to positive control 50 µM C12K-7α8
Experimental: Inner Membrane Damages: Damage inflicted to the cytoplasmic membrane was assessed using 3,3-dipropylthiadicarbocyanine iodide (DiSC3(5)), a lipophilic potentiometric dye that changes its fluorescence intensity in response to changes in transmembrane potential. Bacteria were grown overnight, diluted and at mid-log were adjusted to O.D = 0.1 (600 nm), centrifuged (10,000 RCF, 5 min), and re-suspended in the assay buffer (5 mM HEPES containing 20 mM glucose, 0.2 mM EDTA, and 50 mM KCl). Then, DiSC3(5) dye was added (to final concentration 4 μM) and incubated at 37 °C for 60 min in the dark to allow dye uptake. An aliquot (180 μL) of the bacterial suspension was placed in a 96-well plate and fluorescence was monitored until baseline stabilization (excitation, 622 nm; emission, 670 nm, monitored using Synergy HT, BioTek Instruments, Winooski, VT, USA). […] Fluorescence was immediately monitored continuously for 30 min. […]
Figure 7 Evidence for proton and ATP leakage across the inner membrane. (a) Dissipation of the transmembrane potential in E. coli 25922 (8.8 ± 1.8 × 10^7 CFU/mL) pre-incubated with DiSC3(5) as determined 15 min after exposure to C14OOc12O (orange) or to C14(ω5)OOc10O (green). […] (b) Intracellular ATP concentrations were determined after 1 h incubation with C14(ω5)OOc10O (green) or C14OOc12O (orange) using E. coli 25922 at 5 × 10^7 CFU/mL. RLU, relative luminescence units.

Maximum tolerated dose = assay type: in vivo, mouse; conditions: single-dose subcutaneous, uninfected ICR mice, three mice per dose, monitored 7 days
Experimental: (§1) Animals: All animal studies were performed using male ICR mice (25 ± 2 gr). The Technion Animal Care and Use committee approved all procedures, care, and handling of animals. Ethics approval codes: IL0800519, IL0640421, IL0550618, IL1811217.
The maximum tolerated dose (MTD) was determined after a single-dose subcutaneous (S.C) administration of C14(ω5)OOc10O using three mice per dose. Animals were monitored for adverse effects for 7 days after injection.

E. coli 25922 [3] = assay: Thigh infection model; assay type: in vivo, mouse; conditions: 12.5 mg/kg S.C at 1 and 3 h post-infection, CFU/thigh at 24 h, 8 mice per group
Experimental: as §1
For efficacy assessments, three infection models were used including one with topical treatment and two with systemic treatment. • Excisional skin wound infection model: mice were anesthetized by intraperitoneal administration of a mixture of ketamine 100 mg/kg and xylazine 5 mg/kg in PBS and their backs shaved with electric clippers. The following day mice were similarly anesthetized and were administrated (S.C) 0.05 mg/kg buprenorphine (for pain relief). A 5 mm diameter piece of skin was removed from the middle of the shaved back, with sterile biopsy punch resulting in a full-thickness injury. A total of 20 µL of a mid-logarithmic culture, containing 5 × 10^6 CFU P. aeruginosa 27853 were applied on the wound. […] The number of viable bacteria was determined after overnight incubation at 37 °C. […] The number of viable bacteria was determined after overnight incubation at 37 °C. […] The number of viable bacteria was determined after overnight incubation at 37 °C. […]

**Q.** With `CCCCC=CCCCCCCCC(=O)N[C@@H](CCCN)C(=O)N[C@@H](CCCN)C(=O)NCCCCCCCCCC(=O)N[C@@H](CCCN)C(N)=O` [C14(ω5)OOc10O] as the compound, how does the “CAC, critical aggregation concentration” value [1] read?
**A.** The value was over 100 µM.

**Q.** And the “Depolarization (dissipation of the transmembrane potential)” value (E. coli 25922 [2])?
**A.** Its value is “only partial depolarization”.

**Q.** And the “Maximal tolerated dose (MTD)” value (Maximum tolerated dose)?
**A.** Its value is “higher than 40 mg/kg”.

**Q.** What about the “Effect on thigh bacterial loads” value (E. coli 25922 [3]) of the same compound?
**A.** Its value is “unable to reduce bacterial loads”.
